Test results published in patent US8853215B2, “Derivatives of N-acyl-N′-phenylpiperazine useful (inter alia) for the prophylaxis or treatment of diabetes” (Takeda Pharmaceutical Company Limited, priority 2009, dated 2014).

Target: RBP4 (Mus musculus (Mouse), UniProt Q00724)
Experiment: Single administration test in mice, plasma RBP4 by ELISA
Format: in vivo
Settings: male C57BL/6J or ICR mice, 50 mg/kg oral single dose, mean±SD
Description: The action of the compounds of the present invention to reduce plasma RBP4 level was evaluated using the animal model shown below.
Male C57BL/6J and ICR mice were purchased from Charles River (Japan) and maintained on a normal diet (CE2, CLAE Japan, Inc.) and tap water. Animals were housed in a temperature-controlled room adjusted to a 12-hour light/12-hour dark cycle beginning at 7:00 and 19:00, respectively. All procedures were conducted according to the experimental animal care use committee of Takeda Pharmaceutical Company.
Male 6-12-week-old C57BL/6J or ICR mice were housed individually and fed CE2 for 4-6 days. After acclimatization, mice were divided into groups based on their body weight. Compounds were suspended in 0.5% (w/v) methylcellulose in water and given orally to mice at a dose of 50 mg/10 mL/kg of body weight (three to five mice per group). Blood samples were obtained from orbital vein with sodium heparin as an anticoagulant at time 0 hr (just before the administration), 4 hr, 7 hr, and 24 hr after the administration, followed by plasma separation by centrifugation. Plasma RBP4 levels were measured by enzyme-linked immunosorbent assay described in the following section.
Plasma samples were analyzed in duplicate for RBP4 by an enzyme-linked immunosorbent assay. Mouse recombinant RBP4 (Takeda Pharmaceutical Company) was used as standards, and the assay range was 0.313-20 ng/ml. Samples were diluted 10,000-fold with phosphate-buffered saline (PBS) (Sigma) containing 10% (w/v) BlockAce (Dainippon Sumitomo Pharma Co., Ltd). Rabbit anti-RBP4 polyclonal antibody (100 μL/well of 50 μg/mL, Hokudo Co, Ltd) was incubated in a 96-well plate (Nalge Nunc International K.K.) for overnight at 4° C. Subsequently, the plates were washed with PBS-T (Wako Pure Chemical Industries, Ltd.) and blocked with PBS containing 25% BlockAce for 1 hr at room temperature. After another washing with PBS-T, samples and standards were applied to the well, and the plates were incubated for 2 hr at room temperature. After a washing the wells, peroxidase-labeled (Dojindo Laboratories) anti-RBP4 (100 μL/well) was added to the wells, and then the plates were incubated for 1 hr at room temperature. After a final washing with PBS-T, substrate solution 3,3,5,5-tetramethylbenzidine (Sigma) was added to the wells, and the plates were placed in the dark for 5-20 min at room temperature. The reaction was stopped with 0.5 M sulphuric acid and the optical density was measured with a spectrophotometer at 450 nm. The changes in plasma RBP4 levels were expressed as % of initial/Control. All data are presented as mean±SD.

RBP4 (% of initial/Control) 0 hr (0 hr (just before the administration)): 100.0 ± 25.0 % of initial/Control | RBP4 (% of initial/Control) 4 hr (4 hr after administration): 52.4 ± 2.8 % of initial/Control | RBP4 (% of initial/Control) 7 hr (7 hr after administration): 50.2 ± 0.9 % of initial/Control | RBP4 (% of initial/Control) 24 hr (24 hr after administration): 145.9 ± 19.6 % of initial/Control
SMILES: CC(C)(C)c1ccccc1N1CCN(C(=O)C(=O)O)CC1 [Example 44, 2-[4-(2-tert-Butylphenyl)piperazin-1-yl]-2-oxoacetic acid]
